In the supplement of paper PMC11208160:

Assay: recombinant UMI read abundance after kanamycin selection (control-corrected) (log10(CPM+1)); higher = more efficient recombination; extreme values may be limits of the assay; sequences stand for … in AGTGCAGAGAAAATCGGCCAGTTTTCTCTGCCTGCAGTCCGCATGCCGTGGGACCCCTTGGGTTCTAACCTGTTGCCTAGATTTATGCAGCGGACTGCCTTTCTCCCAAAGTGATAAACCGG…AGGTTGGTTTCACT; site = the 11-nt donor
Method in brief: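 Two replicates each of selected and unselected plating were used in this pooled Escherichia coli screen of donor and donor-binding-loop pairs for the IS621 bridge recombinase. Selection was with IPTG (0.07 mM) and kanamycin. Counts of recombinant UMIs, amplified across the donor–target junction, were converted to CPM, averaged, scaled by control-derived factors and reported as log10(CPM+1).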
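Note: IS621 bridge recombinase in Escherichia coli cells against a fixed T5 target plasmid.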

Question: Which “recombinant UMI read abundance (log10)” value does the source give for “GTAGTTGCATGGACCGGTTTTCCCGGTAATCCGTATTTGCG (site GTAGTGGCTCG)” here?
Answer: Its value is 0.373.

Question: Which “recombinant UMI read abundance (log10)” value does the source give for “GTAGTTGCATGGACCGGTTTTCCCGGTAATCCGTATTTGCG (site GTAGTTGCTCG)” here?
Answer: The value was 2.88.

Question: With “GTATACACATGGACCGGTTTTCCCGGTAATCCGTATTTGTA (site GTATACACTTA)” as the sequence, how does the “recombinant UMI read abundance (log10)” value read?
Answer: Its value is 2.12.

Question: Which “recombinant UMI read abundance (log10)” value does the source give for “GTATACACATGGACCGGTTTTCCCGGTAATCCGTATTTGTA (site GTATCCACTTA)” here?
Answer: Its value is 0.

Question: For “GTATACACATGGACCGGTTTTCCCGGTAATCCGTATTTGTA (site GTATGCACTTA)”, which “recombinant UMI read abundance (log10)” value is on record?
Answer: Its value is 0.0117.

Question: For “GTATACACATGGACCGGTTTTCCCGGTAATCCGTATTTGTA (site GTATTCACTTA)”, which “recombinant UMI read abundance (log10)” value is on record?
Answer: Its value is 0.0042.

Question: Which “recombinant UMI read abundance (log10)” value does the source give for “GTATAGACATGGACCGGTTTTCCCGGTAATCCGTATTTGCC (site GAATAGACTGG)” here?
Answer: Its value is 2.37.

Question: With “GTATAGACATGGACCGGTTTTCCCGGTAATCCGTATTTGCC (site GCATAGACTGG)” as the sequence, how does the “recombinant UMI read abundance (log10)” value read?
Answer: The value was 2.19.

Question: For “GTATAGACATGGACCGGTTTTCCCGGTAATCCGTATTTGCC (site GGATAGACTGG)”, which “recombinant UMI read abundance (log10)” value is on record?
Answer: Its value is 0.251.

Question: With “GTATAGACATGGACCGGTTTTCCCGGTAATCCGTATTTGCC (site GTATAGACTGG)” as the sequence, how does the “recombinant UMI read abundance (log10)” value read?
Answer: The value was 2.83.

Question: Which “recombinant UMI read abundance (log10)” value does the source give for “GTATATCCATGGACCGGTTTTCCCGGTAATCCGTATTTGGT (site GTATATCCTAC)” here?
Answer: Its value is 1.08.

Question: For “GTATCAACATGGACCGGTTTTCCCGGTAATCCGTATTTGAA (site GTATCAACTTT)”, which “recombinant UMI read abundance (log10)” value is on record?
Answer: Its value is 1.01.

Question: Which “recombinant UMI read abundance (log10)” value does the source give for “GTATCCACATGGACCGGTTTTCCCGGTAATCCGTATTTGTA (site GTATACACTTA)” here?
Answer: The value was 0.926.

Question: Which “recombinant UMI read abundance (log10)” value does the source give for “GTATCCACATGGACCGGTTTTCCCGGTAATCCGTATTTGTA (site GTATCCACTTA)” here?
Answer: The value was 1.94.

Question: Which “recombinant UMI read abundance (log10)” value does the source give for “GTATCCACATGGACCGGTTTTCCCGGTAATCCGTATTTGTA (site GTATGCACTTA)” here?
Answer: The value was 0.019.

Question: With “GTATCCACATGGACCGGTTTTCCCGGTAATCCGTATTTGTA (site GTATTCACTTA)” as the sequence, how does the “recombinant UMI read abundance (log10)” value read?
Answer: The value was 0.00595.

Question: For “GTATGAACATGGACCGGTTTTCCCGGTAATCCGTATTTGTA (site GTATGAACTTA)”, which “recombinant UMI read abundance (log10)” value is on record?
Answer: The value was 2.42.

Question: Which “recombinant UMI read abundance (log10)” value does the source give for “GTATGAACATGGACCGGTTTTCCCGGTAATCCGTATTTGTA (site GTATGCACTTA)” here?
Answer: The value was 0.00699.

Question: Which “recombinant UMI read abundance (log10)” value does the source give for “GTATGAACATGGACCGGTTTTCCCGGTAATCCGTATTTGTA (site GTATGGACTTA)” here?
Answer: Its value is 0.255.

Question: With “GTATGAACATGGACCGGTTTTCCCGGTAATCCGTATTTGTA (site GTATGTACTTA)” as the sequence, how does the “recombinant UMI read abundance (log10)” value read?
Answer: Its value is 0.

Question: With “GTATGATCATGGACCGGTTTTCCCGGTAATCCGTATTTGGG (site GTATGATCTCC)” as the sequence, how does the “recombinant UMI read abundance (log10)” value read?
Answer: The value was 0.738.

Question: Which “recombinant UMI read abundance (log10)” value does the source give for “GTATGCACATGGACCGGTTTTCCCGGTAATCCGTATTTGTG (site GTATGCACTAA)” here?
Answer: Its value is 0.198.

Question: For “GTATGCACATGGACCGGTTTTCCCGGTAATCCGTATTTGTG (site GTATGCACTCA)”, which “recombinant UMI read abundance (log10)” value is on record?
Answer: Its value is 1.34.

Question: With “GTATGCACATGGACCGGTTTTCCCGGTAATCCGTATTTGTG (site GTATGCACTGA)” as the sequence, how does the “recombinant UMI read abundance (log10)” value read?
Answer: The value was 0.881.

Question: With “GTATGCACATGGACCGGTTTTCCCGGTAATCCGTATTTGTG (site GTATGCACTTA)” as the sequence, how does the “recombinant UMI read abundance (log10)” value read?
Answer: The value was 1.29.

Question: For “GTATGCCCATGGACCGGTTTTCCCGGTAATCCGTATTTGTA (site GTATGCACTTA)”, which “recombinant UMI read abundance (log10)” value is on record?
Answer: Its value is 0.0189.

Question: With “GTATGCCCATGGACCGGTTTTCCCGGTAATCCGTATTTGTA (site GTATGCCCTTA)” as the sequence, how does the “recombinant UMI read abundance (log10)” value read?
Answer: The value was 0.172.

Question: Which “recombinant UMI read abundance (log10)” value does the source give for “GTATGCCCATGGACCGGTTTTCCCGGTAATCCGTATTTGTA (site GTATGCGCTTA)” here?
Answer: Its value is 0.0563.

Question: Which “recombinant UMI read abundance (log10)” value does the source give for “GTATGCCCATGGACCGGTTTTCCCGGTAATCCGTATTTGTA (site GTATGCTCTTA)” here?
Answer: The value was 1.76.

Question: For “GTATGCTCATGGACCGGTTTTCCCGGTAATCCGTATTTGTA (site GTATGCACTTA)”, which “recombinant UMI read abundance (log10)” value is on record?
Answer: The value was 0.29.

Question: Which “recombinant UMI read abundance (log10)” value does the source give for “GTATGCTCATGGACCGGTTTTCCCGGTAATCCGTATTTGTA (site GTATGCCCTTA)” here?
Answer: Its value is 1.2.

Question: With “GTATGCTCATGGACCGGTTTTCCCGGTAATCCGTATTTGTA (site GTATGCGCTTA)” as the sequence, how does the “recombinant UMI read abundance (log10)” value read?
Answer: The value was 0.0181.
